Assay results taken from patent US20120245184A1 (Aderans Research Institute, Inc., priority 2006, published 2012).
Structures can show the parent of a compound that is named as a salt.

How the values were obtained:
[1] = test system: sonic hedgehog pathway; test: Human hedgehog reporter assay HEPM-GliLuc (HGL); type: cell-based; conditions: read-out: HEPM Avg. EC50
From the text: (§1) Mouse (TM3: mouse Leydig cells; S12: mouse embryonic mesenchymal cells) and human (Daoy: human medulloblastoma cell; HepM: human embryonic palatal mesenchymal cell) cell lines are used to screen small molecules for their ability to modulate the activity of the sonic hedgehog pathway (Table 1, Table 2, and Table 3). Stable hedgehog pathway reporter cell lines are established by specific antibiotic selection following transfection of a reporter plasmid containing a luciferase gene located directly downstream from the gli promoter. Consequently, any observable changes in cellular luciferase activity may be attributed to changes in sonic hedgehog pathway activity in mouse and human cells, respectively, since gli is the major by-product of this pathway. To calculate activity, we generate an eleven point dose curve for each compound using 1:3 dilutions in 96 well assay plates. Each plate tested also contains low and high control to establish maximal pathway activation so to establish/compare a percentage activation of each tested compound (AMAX) on respective plates.
(§2) Stable hedgehog pathway reporter cell lines are established following specific antibiotic selection following transfection of a reporter plasmid
(§3) In short, typically cells are plated in MicroTiter-plates at 10,000-20,000 cells per well, in growth media (containing 10%-20% FBS). After 48-72 hrs (HGL and DGL respectively) the media in the assay plates is switched to low-serum containing media (0.5% FBS). At that time compounds are added (at 1-5 μM) to the assay plates, in the presence or absence of hedgehog protein (octyl-modified version; 1-5 ng/ml). After another 24 hrs of incubation, the media from the assay plates is discarded and replaced with luciferase assay-mix. Subsequently, plates are incubated at RT for ˜15-30 mins and then read in a luminometer. [note: addition of the Hedgehog protein, although not critical, will sensitize the assay allowing the identification of weak actives].

[2] = test system: sonic hedgehog pathway; test: Hedgehog reporter assay (gli-luciferase) in TM3 cells; type: cell-based, mouse; conditions: read-out: TM3 Avg. EC50
From the text: as §1, §2, §3

[3] = test system: sonic hedgehog pathway; test: Human hedgehog reporter assay Daoy-GliLuc (DGL); type: cell-based; conditions: Daoy human medulloblastoma cells, gli-luciferase reporter; read-out: Daoy Avg. EC50
From the text: as §1, §2, §3

[4] = HepM human embryonic palatal mesenchymal cells, gli-luciferase reporter
[5] = TM3 mouse Leydig cells, gli-luciferase reporter

| EC50 [2, 5] | EC50 [3] | Structure (SMILES) | EC50 [1, 4] | EC50 ([1]; Homo sapiens) | EC50 ([2]; Mus musculus, Leydig) |
| --- | --- | --- | --- | --- | --- |
| < 50 nM | – | CNC1CCC(N(Cc2cc(-c3ccnc(C)c3)ccc2OC)C(=O)c2sc3ccccc3c2Cl)CC1 (centres unmarked) [331 (R11), 3-Chloro-benzo[b]thiophene-2-carboxylic acid[2-methoxy-5-(2-methyl-pyridin-4-yl)-benzyl]-(4-methylamino-cyclohexyl)-amide dihydrochloride] | < 50 nM | – | – |
| 50 to 250 nM | < 50 nM | CNC1CCC(N(Cc2cc(-c3ccc(C(F)(F)F)cc3)ccc2OC)C(=O)c2sc3ccccc3c2Cl)CC1 (centres unmarked) [Compound 306, 3-Chloro-benzo[b]thiophene-2-carboxylic acid (4-methoxy-4′-trifluoromethyl-biphenyl-3-ylmethyl)-(4-methylamino-cyclohexyl)-amide trifluoroacetate] | – | – | – |
| < 50 nM | < 50 nM | CNC1CCC(N(Cc2cc(-c3ccc(Cl)cc3)ccc2OC)C(=O)c2sc3ccccc3c2Cl)CC1 (centres unmarked) [Compound 308, 3-Chloro-benzo[b]thiophene-2-carboxylic acid (4′-chloro-4-methoxy-biphenyl-3-ylmethyl)-(4-methylamino-cyclohexyl)-amide hydrochloride] | – | – | – |
| < 50 nM | < 50 nM | CN[C@H]1CC[C@H](N(Cc2cc(-c3ccc(F)cc3)ccc2OC)C(=O)c2sc3ccccc3c2Cl)CC1 [Compound 314, 3-Chloro-benzo[b]thiophene-2-carboxylic acid (4′-fluoro-4-methoxy-biphenyl-3-ylmethyl)-(4-methylamino-cyclohexyl)-amide hydrochloride] | – | – | – |
| 250 to 1000 nM | 50 to 250 nM | CNc1ncc(-c2ccc(OC)c(CN(C(=O)c3sc4ccccc4c3Cl)[C@H]3CC[C@H](NC)CC3)c2)cn1 [Compound 322, 3-Chloro-benzo[b]thiophene-2-carboxylic acid[2-methoxy-5-(2-methylamino-pyrimidin-5-yl)-benzyl]-(4-methylamino-cyclohexyl)-amide dihydrochloride] | – | – | – |
| 50 to 250 nM | < 50 nM | CN[C@H]1CC[C@H](N(Cc2cc(-c3cnc(N)nc3)ccc2OC)C(=O)c2sc3ccccc3c2Cl)CC1 [Compound 323, 3-Chloro-benzo[b]thiophene-2-carboxylic acid[5-(2-amino-pyrimidin-5-yl)-2-methoxy-benzyl]-(4-methylamino-cyclohexyl)-amide dihydrochloride] | – | – | – |
| < 50 nM | – | CCOc1ccc(-c2ccc(C(=O)C(F)(F)F)cc2)cc1CN(C(=O)c1sc2c(F)ccc(C)c2c1Cl)[C@H]1CC[C@@H](NC)CC1 [Compound 341, 3-Chloro-4,7-difluoro-benzo[b]thiophene-2-carboxylic acid[4-ethoxy-4′-(2,2,2-trifluoro-acetyl)-biphenyl-3-ylmethyl]-(4-methylamino-cyclohexyl)-amide trifluoroacetate] | 50 to 250 nM | – | – |
| < 50 nM | < 50 nM | CN[C@H]1CC[C@H](N(Cc2cc(-c3cccc(C(C)=O)c3)ccc2OC)C(=O)c2sc3cccc(F)c3c2Cl)CC1 [Compound 363, 3-Chloro-4-fluoro-benzo[b]thiophene-2-carboxylic acid (3′-acetyl-4-methoxy-biphenyl-3-ylmethyl)-(4-methylamino-cyclohexyl)-amide hydrochloride] | – | – | – |
| < 50 nM | – | CNC1CCC(N(Cc2cc(-c3cc(C)nc(C)c3)ccc2OC)C(=O)c2sc3ccccc3c2Cl)CC1 (centres unmarked) [Compound R1, 3-Chloro-benzo[b]thiophene-2-carboxylic acid[5-(2,6-dimethyl-pyridin-4-yl)-2-methoxy-benzyl]-(4-methylamino-cyclohexyl)-amide dihydrochloride] | 50 to 250 nM | – | – |
| 50 to 250 nM | – | CCOc1ccc(-c2ccc(C#N)cc2)cc1CN(C(=O)c1sc2ccccc2c1Cl)C1CCC(NC)CC1 (centres unmarked) [Compound R2, 3-Chloro-benzo[b]thiophene-2-carboxylic acid (4′-cyano-4-ethoxy-biphenyl-3-ylmethyl)-(4-methylamino-cyclohexyl)-amide hydrochloride] | 50 to 250 nM | – | – |
| 50 to 250 nM | – | CCOc1ccc(-c2ccc(C)nc2)cc1CN(C(=O)c1sc2ccccc2c1Cl)C1CCC(NC)CC1 (centres unmarked) [Compound R4, 3-Chloro-benzo[b]thiophene-2-carboxylic acid[2-ethoxy-5-(6-methyl-pyridin-3-yl)-benzyl]-(4-methylamino-cyclohexyl)-amide dihydrochloride] | 50 to 250 nM | – | – |
| – | – | CNC1CCC(N(Cc2cc(-c3ccc(S(C)(=O)=O)cc3)ccc2OC)C(=O)c2sc3ccccc3c2Cl)CC1 (centres unmarked) [Compound R7, 3-Chloro-benzo[b]thiophene-2-carboxylic acid (4′-methanesulfonyl-4-methoxy-biphenyl-3-ylmethyl)-(4-methylamino-cyclohexyl)-amide hydrochloride] | – | < 50 nM | < 50 nM |
| < 50 nM | – | CN[C@H]1CC[C@@H](N(Cc2cc(-c3ccc(C(C)=O)cc3)ccc2OC)C(=O)C2=C(Cl)c3c(F)ccc(F)c3C2)CC1 [Compound R8, 3-Chloro-4,7-difluoro-benzo[b]thiophene-2-carboxylic acid(4′-carbamoyl-4-methoxy-biphenyl-3-ylmethyl)-(4-methylamino-cyclohexyl)-amide hydrochloride] | < 50 nM | – | – |

| Structure (SMILES) | EC50 [2, 5] | EC50 [3] | EC50 [1, 4] | EC50 ([1]; Homo sapiens) | EC50 ([2]; Mus musculus, Leydig) |
| --- | --- | --- | --- | --- | --- |
| CNC(=O)c1cc(-c2ccc(OC)c(CN(C(=O)c3sc4c(F)ccc(F)c4c3Cl)C3CCC(NC)CC3)c2)ccn1 (centres unmarked) [356 (R21), 4-(3-{[(3-Chloro-4,7-difluoro-benzo[b]thiophene-2-carbonyl)-(4-methylamino-cyclohexyl)-amino]-methyl}-4-methoxy-phenyl)-pyridine-2-carboxylic acid methylamide dihydrochloride] | < 50 nM | < 50 nM | < 50 nM | – | – |
| CNC1CCC(N(Cc2cc(-c3ccc(OC(F)(F)F)cc3)ccc2OC)C(=O)c2sc3ccccc3c2Cl)CC1 (centres unmarked) [Compound 307, 3-Chloro-benzo[b]thiophene-2-carboxylic acid (4-methoxy-4′-trifluoromethoxy-biphenyl-3-ylmethyl)-(4-methylamino-cyclohexyl)-amide hydrochloride] | < 50 nM | < 50 nM | – | – | – |
| CCOc1ccc(-c2ccc(C(F)(F)F)cc2)cc1CN(C(=O)c1sc2ccccc2c1Cl)C1CCC(NC)CC1 (centres unmarked) [Compound 309, 3-Chloro-benzo[b]thiophene-2-carboxylic acid (4-ethoxy-4′-trifluoromethyl-biphenyl-3-ylmethyl)-(4-methylamino-cyclohexyl)-amide hydrochloride] | 50 to 250 nM | < 50 nM | – | – | – |
| CCOc1ccc(-c2ccc(OC)cc2)cc1CN(C(=O)c1sc2ccccc2c1Cl)C1CCC(NC)CC1 (centres unmarked) [Compound 312, 3-Chloro-benzo[b]thiophene-2-carboxylic acid (4-ethoxy-4′-methoxy-biphenyl-3-ylmethyl)-(4-methylamino-cyclohexyl)-amide hydrochloride] | – | 50 to 250 nM | – | – | – |
| CCOc1ccc(-c2ccccc2)cc1CN(C(=O)c1sc2ccccc2c1Cl)C1CCC(NC)CC1 (centres unmarked) [Compound 313, 3-Chloro-benzo[b]thiophene-2-carboxylic acid (4-ethoxy-biphenyl-3-ylmethyl)-(4-methylamino-cyclohexyl)-amide hydrochloride] | 50 to 250 nM | < 50 nM | – | – | – |
| CNC1CCC(N(Cc2cc(-c3cccc(C#N)c3)ccc2OC)C(=O)c2sc3c(F)ccc(F)c3c2Cl)CC1 (centres unmarked) [Compound 337, 3-Chloro-4,7-difluoro-benzo[b]thiophene-2-carboxylic acid (3′-cyano-4-methoxy-biphenyl-3-ylmethyl)-(4-methylamino-cyclohexyl)-amide hydrochloride] | < 50 nM | – | < 50 nM | – | – |
| CNC1CCC(N(Cc2cc(-c3ccncc3)ccc2OC)C(=O)c2sc3ccccc3c2Cl)CC1 (centres unmarked) [Compound 339 (R12), 3-Chloro-benzo[b]thiophene-2-carboxylic acid (2-methoxy-5-pyridin-4-yl-benzyl)-(4-methylamino-cyclohexyl)-amide dihydrochloride] | < 50 nM | – | < 50 nM | – | – |
| CNC1CCC(N(Cc2cc(-c3ccc(C#N)cc3)ccc2OC)C(=O)c2sc3c(F)ccc(F)c3c2Cl)CC1 (centres unmarked) [Compound 351, 3-Chloro-4,7-difluoro-benzo[b]thiophene-2-carboxylic acid (4′-cyano-4-methoxy-biphenyl-3-ylmethyl)-(4-methylamino-cyclohexyl)-amide hydrochloride] | < 50 nM | – | < 50 nM | – | – |
| CNC1CCC(N(Cc2cc(-c3ccnc(C(=O)O)c3)ccc2OC)C(=O)c2sc3c(F)ccc(F)c3c2Cl)CC1 (centres unmarked) [Compound R6, 4-(3-{[(3-Chloro-4,7-difluoro-benzo[b]thiophene-2-carbonyl)-(4-methylamino-cyclohexyl)-amino]-methyl}-4-methoxy-phenyl)-pyridine-2-carboxylic acid bis(trifluoroacetate)] | 50 to 250 nM | – | 50 to 250 nM | – | – |
